Reference: patent US8304238B2, “Cell culture medium and immobilized preparation of cell adhesion protein or peptide” (Nat'l Institute for Environmental Studies, priority 2003, dated 2012)
Where no end group is shown, it is not given here. [ ]: non-standard residue; d: D form. Nle = CCCC[C@H](N)C(=O)O

Tests used:
Type in all cases: cell-based
[1] = tested on: alveolar type II epithelial cells (T2 cells); test: Adhesion of T2 cells to pseudomatrices dissolved in 50% ethanol and air-dried/immobilized, and competitive inhibition by free peptide; settings: for Free GRGDSP concentration at which cell adhesion was almost completely inhibited: free peptide 0.25-4.0 mg/ml tested; for Competitive inhibition of cell adhesion by free peptide: 50% ethanol air-dried pseudomatrix, 0.25 mg/ml free AG73 or FIB-1; for Adhesion of T2 cells to pseudomatrix compared with coated FN: 0.1-1.0 μg/well, 24 hours serum-free
Protocol: 50 μl of 2-20 μg/ml MAST-GRGDSP (Gly-Arg-Gly-Asp-Ser-Pro) (SEQ ID NO: 22) and MMAC-GRGDSP (SEQ ID NO: 22) dissolved in 50% ethanol were poured into wells, and air-dried/immobilized. Next, the wells to which MAST-GRGDSP (SEQ ID NO: 22) and MMAC-GRGDSP (SEQ ID NO: 22) (0.1-1.0 μg/well) were coated were rinsed with the serum-free DMEM medium. T2 cells suspended in the medium at the concentration of 6×10^4 cells/100 μl were seeded, and cultured in a CO2 incubator at 37° C. for 24 hours. Then, the cells were fixed with methanol, stained, and measured its absorbance according to the method in Example 7. A culture wherein FN was coated as a standard material was conducted simultaneously. The cell adhesion on FN was shown as a standard (100%).
In the same manner as in Example 18, MAST-GRGDSP (SEQ ID NO: 22) was dissolved in 50% ethanol, air-dried/immobilized on wells, and T2 cells were seeded/cultured thereon. Separately, just before the cells were seeded, 0.25-4.0 mg/ml of free GRGDSP (SEQ ID NO: 22) peptide was added to the cell suspension, and the culture and the subsequent measurement of absorbance were conducted in the same manner as described above. […] Further, when the applied amount of MAST-GRGDSP (SEQ ID NO: 22) was decreased, the immobilized amount of GRGDSP (SEQ ID NO: 22) decreased, and the competitive inhibition by free GRGDSP (SEQ ID NO: 22) peptide worked more effectively.
In the same manner as in Example 18, MMAC-GRGDSP (SEQ ID NO: 22) was dissolved in 50% ethanol, air-dried/immobilized on wells, and T2 cells were seeded/cultured thereon. Separately, just before the cells were seeded, 0.25-4.0 mg/ml of free GRGDSP (SEQ ID NO: 22) peptide was added to the cell suspension, and the culture and the subsequent measurement of absorbance were conducted in the same manner as described above.
In the same manner as in Example 18, MBAC/MAST-AG73 and -FIB-1 were dissolved in 50% ethanol, air-dried/immobilized on wells, and T2 cells were seeded/cultured thereon. Separately, just before the cells were seeded, 0.25 mg/ml of free AG73 or FIB-1 peptide was added to the cell suspension, and the culture and the subsequent measurement of absorbance were conducted in the same manner as described above.

[2] = tested on: alveolar type II epithelial cells (T2 cells); test: Binding strength (affinity) of immobilized LN peptides to T2 cells relative to immobilized FIB-1 (mixed immobilization, free FIB-1 competition); set-up: key to Binding strength to T2 cells, Comprehensive evaluation: AA: extremely strongly binding/adhering; A: strongly binding/adhering; B: intermediately binding/adhering (as the same degree as FIB-1 peptide); C: more weakly binding/adhering than FIB-1 peptide
Protocol: Therefore, the amount of FIB-1 peptide was set at 0.25 mg/ml, and AG73 peptide was mixed therewith, while changing its concentration ratio, from 1/1.250 of FIB-1 in an amount which is 0.20 μg/ml, to ½ of FIB-1 in an amount which is 0.125 mg/ml, and the mixture was immobilized on a well wherein a hydrophobic binding-adsorptive polymer MMAC was coated. The amount of cell adhesion in the case where T2 cells were cultured under a serum-free condition for 1 day on the immobilized peptides is shown in FIG. 9, in comparison with the case where the culture was conducted on the immobilized FIB-1, which was set at 100%.
However, in a case that the ratio of FIB-1:AG73 increased to 1:0.02, because T2 cells already transited to be adherent through the immobilized AG73 peptide, free FIB-1 peptide could no longer inhibit the cell adhesion. […] Likewise, with regard to A3G72 and A4G82 peptides, because the mixing ratio at the transitional midpoint=0.1, their binding strength to T2 cells is 10 times as much as that of FIB-1.
The method used in FIGS. 8 and 9 is extremely effective as a convenient method by which a relative order can be measured concerning to the binding strength (affinity) of cell adhesion peptides and the strength of cell adhesion can be considered quantitatively.
In Table 1, the classification is shown based on the results of the affinity (bonding/adhesion strength) between FIB-1 peptide containing RGD amino acid sequence of FN molecule, a binding site to integrin, and T2 cells: laminin α-chain G-domain peptides are classified into class AA, extremely strong binding/adhesion; class A, strong adhesion; class B, adhesion as the same degree as FIB-1; and class C, binding weaker than the described above.

[3] = tested on: alveolar type II epithelial cells (T2 cells); test: Inhibition by free cell adhesion peptides of T2 cell adhesion to coated cell adhesion proteins FN, Col I, LN, VN; settings: free peptide 0.25 mg/ml; serum-free, 1 day
Protocol: Commercially available FN, LN and VN, usually used as cell adhesion proteins at cell culture, were coated to wells at the concentrations of 5 μg/ml, 10 μg/ml and 10 μg/ml, respectively. In case of Col I (collagen type I), Col I at the concentration of 100 μg/ml, dissolved in 1 mM HCl, was poured into a well, left stand still for a while, and then the solution was removed and air-drying was conducted, and rinsed with the medium, before use. Next, 6×10^5 cells/ml of alveolar type II epithelial cells (T2 cells) suspended in the serum-free DMEM medium was seeded by 100 μl each on a 96-well to which the extracellular matrix was coated, and cultured in a CO2 incubator at 37° C. for 1 day. After the culture was finished, the cells were fixed with 100 μl of methanol for 5 minutes, and stained for 30 minutes with 50 μl of 0.4% crystal violet. Excessive staining was washed with water, then the number of cells adhered to FN, Col I, LN and VN, which had been coated to the wells, was counted based on the absorbance of cytoplasm (A595).
On the other hand, among amino acid sequences of various LN molecules, the sequences that induce cell adhesion are known to be present. […] Then, the number of cells was counted in accordance with the method described above.

[4] = tested on: alveolar type II epithelial cells (T2 cells); test: Inhibition of T2 cell adhesion by free peptide different from the immobilized peptide substrate
Protocol: Results obtained by adding the free peptides different from the immobilized peptides when T2 cells were cultured on the immobilized peptide prepared according to the method in Example 7, were shown in FIG. 8.
When adding the free peptides that were the same as the immobilized peptides in the culture medium, the both (free and immobilized) peptides compete for syndecan of T2 cells and as a result, the cell adhesion is inhibited (see Example 7). So far, four types of syndecans are genetically known. Whether these syndecans are commonly owned or accommodated by each peptide, overlapping only by some degrees, otherwise mutually exclusive, was examined herein.

[5] = tested on: alveolar type II epithelial cells (T2 cells); test: Adhesion of T2 cells to pseudomatrix adsorbed/immobilized from DMEM and competitive inhibition by free peptides; settings: for Cell adhesion ability of immobilized pseudomatrix compared with directly coated FN: 1-10 μg/ml in DMEM, 1-day serum-free culture, excluding 1 μg/ml of MBAC-AG73; for Competitive inhibition of cell adhesion to pseudomatrix by free cell adhesion peptide: pseudomatrix 1-10 μg/ml in DMEM
Protocol: 200 mg each of hydrophobic binding-adsorptive polymer, MBAC, MAST or MMAC were dispersed into water, and 1 N NaOH solution was added little by little to dissolve them completely. 50 mg of WSC (1-ethyl-3-(3-dimethylamino propyl)carbodiimide, hydrochloride) was added to the resulting solution, and the reaction was conducted for 2 hours. Subsequently, 20 mg of peptide was added, and the reaction was continued with stirring for 2 hours at room temperature. After the reaction was finished, the reactant was subjected to dialysis with water to remove alkaline and low molecules, and then freeze-dried to prepare a pseudomatrix of interest.
Each pseudomatrix prepared in Example 13 to which cell adhesion peptide was bound (MBAC-peptide) was diluted in DMEM medium to the concentration of 1-10 μg/ml, and the resultant solution was poured into a 96-well by 100 μl each, and left still overnight in a CO2 incubator to be adsorbed and immobilized on the wells. Non-adsorbed MBAC-peptides were removed by rinsing well with DMEM medium. Next, T2 cells suspended at the concentration of 6×10^5 cells/ml were seeded in the serum-free DMEM by 100 μl each. After 1-day serum-free culture, T2 cells were fixed with 100 μl of methanol for 5 minutes, and stained with 50 μl of 0.4% crystal violet for 30 minutes. Excessive staining was washed with water, and the number of adhering cells was counted based on the absorbance of cytoplasm (A595).
In the same manner as in Example 14, each pseudomatrix prepared in Example 13 to which cell adhesion peptide was bound (MAST-peptide) was adsorbed and immobilized on a 96-well, and T2 cells were seeded and cultured thereon.

Substance | Cell adhesion ability of immobilized pseudomatrix compared with directly coated FN [5] | Competitive inhibition of cell adhesion to pseudomatrix by free cell adhesion peptide [5] | Adhesion of T2 cells to pseudomatrix compared with coated FN ([1]; 50% ethanol, air-dried) | other results
Gly-Arg-Gly-Asp-Ser-Pro (GRGDSP) [reference compound] |  |  |  | Free GRGDSP concentration at which cell adhesion was almost completely inhibited ([1]; adhesion to MAST-GRGDSP): 4.0 mg/mL; Free GRGDSP concentration at which cell adhesion was almost completely inhibited ([1]; adhesion to MMAC-GRGDSP): 1.0 to 4.0 mg/mL
LVLFLNHGHFVA |  |  |  | Binding strength to T2 cells, Comprehensive evaluation ([2]; classification relative to FIB-1 peptide): B; Mixing ratio at the transitional midpoint ([2]; peptide:FIB-1 co-immobilized, FIB-1 0.25 mg/ml, loss of inhibition by free FIB-1): about 1; Inhibition of adhesion of T2 cells to FN, Col I, LN and VN by free peptide [3]: inhibited adhesion of T2 cells; Inhibition by free peptide of T2 cell adhesion to immobilized AG73 ([4]; AG73 (etc.) immobilized): inhibited the cell adhesion; Inhibition by free peptide of T2 cell adhesion to immobilized FIB-1 ([4]; FIB-1 immobilized): could inhibit
MAST-A3G72: pseudomatrix: MAST polymer reacted with A3G72 peptide (KPRLQFSLDIQT) | the same level of cell adhesion ability as in the case where FN was directly coated | competitively inhibited by the free cell adhesion peptide, the degree is lower than the case of MBAC-peptide |  | 
MAST-A4G82X: pseudomatrix: MAST polymer reacted with A4G82X peptide (TLFLAHGRLVF[Nle]; also: peptide reacted with MAST polymer (pseudomatrix)) | the same level of cell adhesion ability as in the case where FN was directly coated | inhibited by free A4G82 peptide |  | 
MAST-AG73: pseudomatrix: MAST polymer reacted with AG73 peptide (RKRLQVQLSIRT) | the same level of cell adhesion ability as in the case where FN was directly coated | competitively inhibited by the free cell adhesion peptide, the degree is lower than the case of MBAC-peptide | similarly to the case where FN was coated | Competitive inhibition of cell adhesion by free peptide [1]: almost completely inhibited
MAST-GRGDSP: pseudomatrix: MAST polymer bound to GRGDSP peptide (also: bound to MAST polymer) |  |  | slightly lower than that of the standard cell adhesion protein FN | Amount of cell adhesion compared with the same peptide bound to MMAC ([1]; 50% ethanol, air-dried, polystyrene wells): larger amount of cell adhesion than that of the same peptide bound to MMAC polymer
MBAC-A3G72: pseudomatrix: MBAC polymer reacted with A3G72 peptide (KPRLQFSLDIQT) |  | competitively inhibited |  | 
MBAC-AG73: pseudomatrix: MBAC polymer reacted with AG73 peptide (RKRLQVQLSIRT) |  | competitively inhibited | similarly to the case where FN was coated | Competitive inhibition of cell adhesion by free peptide [1]: almost completely inhibited
MMAC-GRGDSP: pseudomatrix: MMAC polymer bound to GRGDSP peptide (also: bound to MMAC polymer) |  |  | slightly lower than that of the standard cell adhesion protein FN | 
